Experimental data taken from US9730937B2, “RAF kinase modulator compounds and methods of use thereof” (AMBIT BIOSCIENCES CORPORATION, priority 2008, dated 2017).
Like-named read-outs stand apart in the source and are kept apart here.

What was measured:
[1] = tested on: panel of 290 distinct kinases (321 in the larger panel), excluding mutant variants; settings: kinase selectivity score, class symbols
Method: (§1) The liganded beads were blocked with excess biotin and washed with blocking buffer (SeaBlock (Pierce), 1% BSA, 0.05% Tween 20, 1 mM DTT) to remove unbound ligand and to reduce non-specific binding. […] Test compounds were prepared as 100× stocks in DMSO and rapidly diluted into the aqueous environment. DMSO was added to control assays lacking a test compound. Primary screen interactions were performed in polypropylene 384-well plates in a final volume of 34 μL, while Kd determinations were performed in polystyrene 96-well plates in a final volume of 135 μL. […] The kinase concentration in the eluates was measured by quantitative PCR. Each kinase was tested individually against each compound. KdS were determined using eleven serial threefold dilutions. A selectivity score, which is a quantitative measure of selectivity of a compound against a panel of enzymes, may be calculated for a compound by dividing the number of enzymes for which a compound meets a set criteria, (for example, a binding constant of 100 nM or less), by the total number of enzymes tested. […] (Note, for those compounds tested in a larger kinase panel, as indicated by an asterisk (*) next to the S35 score, the divisor is 321 (i.e. the larger panel contains 321 distinct kinases, excluding mutant variants.)).

RAF kinases = RAF kinases (Homo sapiens (Human), UniProt P04049); settings: read-out: RAF1 Kd, class symbols
RAF kinases, sequence (P04049 whole entry): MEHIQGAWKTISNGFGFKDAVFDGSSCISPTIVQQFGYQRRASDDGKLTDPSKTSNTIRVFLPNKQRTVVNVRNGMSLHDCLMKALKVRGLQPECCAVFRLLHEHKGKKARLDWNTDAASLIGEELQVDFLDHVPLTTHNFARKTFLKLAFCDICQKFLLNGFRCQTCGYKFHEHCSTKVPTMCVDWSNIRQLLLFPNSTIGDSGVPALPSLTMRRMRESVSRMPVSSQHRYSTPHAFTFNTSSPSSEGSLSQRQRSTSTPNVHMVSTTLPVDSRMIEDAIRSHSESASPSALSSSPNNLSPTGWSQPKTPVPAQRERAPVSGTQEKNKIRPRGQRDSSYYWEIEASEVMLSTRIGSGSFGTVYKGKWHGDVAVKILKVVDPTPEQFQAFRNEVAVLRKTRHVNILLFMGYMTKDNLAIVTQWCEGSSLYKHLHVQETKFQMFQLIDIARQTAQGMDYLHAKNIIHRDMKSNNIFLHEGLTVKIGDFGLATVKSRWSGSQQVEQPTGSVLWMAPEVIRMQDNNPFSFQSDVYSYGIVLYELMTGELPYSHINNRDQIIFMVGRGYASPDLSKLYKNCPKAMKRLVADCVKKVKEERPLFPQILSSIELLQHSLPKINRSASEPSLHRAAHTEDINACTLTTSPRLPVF
Method: as §1

mutant BRAF kinase = mutant BRAF kinase (Homo sapiens (Human), UniProt P15056, V600E); settings: read-out: BRAF V600E Kd, class symbols
mutant BRAF kinase, sequence (P15056 whole entry V600E): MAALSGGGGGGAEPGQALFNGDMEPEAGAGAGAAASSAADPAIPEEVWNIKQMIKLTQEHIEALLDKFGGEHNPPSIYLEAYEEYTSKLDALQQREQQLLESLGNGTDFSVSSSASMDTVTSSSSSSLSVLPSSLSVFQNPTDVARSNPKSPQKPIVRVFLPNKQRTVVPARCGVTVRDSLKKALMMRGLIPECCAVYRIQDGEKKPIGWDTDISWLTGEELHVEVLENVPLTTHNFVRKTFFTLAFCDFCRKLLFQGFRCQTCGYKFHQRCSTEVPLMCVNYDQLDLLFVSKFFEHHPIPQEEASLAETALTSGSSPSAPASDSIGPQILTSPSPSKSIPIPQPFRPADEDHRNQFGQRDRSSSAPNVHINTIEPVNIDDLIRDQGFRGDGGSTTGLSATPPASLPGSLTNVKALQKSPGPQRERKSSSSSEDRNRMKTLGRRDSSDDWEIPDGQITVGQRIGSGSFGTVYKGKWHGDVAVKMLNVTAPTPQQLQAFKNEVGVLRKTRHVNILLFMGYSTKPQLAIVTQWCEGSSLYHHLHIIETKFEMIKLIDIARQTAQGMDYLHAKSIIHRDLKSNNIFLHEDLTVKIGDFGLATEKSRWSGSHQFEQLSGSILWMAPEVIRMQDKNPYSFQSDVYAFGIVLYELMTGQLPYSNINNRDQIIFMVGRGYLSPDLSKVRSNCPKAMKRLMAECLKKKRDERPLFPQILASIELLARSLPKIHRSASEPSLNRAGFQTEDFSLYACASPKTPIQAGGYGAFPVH

wild type BRAF kinase [2] = biological target: T1, wild type BRAF kinase (Homo sapiens (Human), UniProt P15056); settings: read-out: BRAF WT Kd, class symbols
T1 sequence (P15056 whole entry): as the sequence (P15056 whole entry V600E) above, with E600V counted along it

wild type BRAF kinase [3] = biological target: T1, wild type BRAF kinase; assay: biochemical
[4] = value marked * (larger kinase panel)

Compound | S35 [1, 4] | Kd (RAF kinases) | Kd (mutant BRAF kinase) | Kd (wild type BRAF kinase [2]) | Kd (wild type BRAF kinase [3]) | S35 ([1]; 290 distinct kinases)
COc1cc2ncnc(Oc3cccc(NC(=O)Nc4cc(C5CCCC5)on4)c3)c2cc1OC [Ex 135, 1-(5-cyclopentylisoxazol-3-yl)-3-(3-(6,7-dimethoxyquinazolin-4-yloxy)phenyl)urea] | C* (0.20 < C ≦ 0.40) | < 250 nM | < 250 nM | < 250 nM |  | 
COc1cc2ncnc(Oc3cccc(NC(=O)Nc4cc(C(C)(C)C)on4)c3)c2cc1O[C@H]1CCN(C)C1 [Ex 109, (S)-1-(5-tert-butylisoxazol-3-yl)-3-(3-(7-methoxy-6-(1-methylpyrrolidin-3-yloxy)quinazolin-4-yloxy)phenyl)urea] |  | < 250 nM | < 250 nM |  | 250 to 500 nM | D (D > 0.40)
COc1cc2nc(Cl)nc(Sc3cccc(NC(=O)Nc4cc(C(C)(C)C)on4)c3)c2cc1OC [Ex 89, 1-(5-tert-butylisoxazol-3-yl)-3-(3-(2-chloro-6,7-dimethoxyquinazolin-4-ylthio)phenyl)urea] |  | > 1000 nM | > 1000 nM | > 1000 nM |  | A (A ≦ 0.10)
COCC(C)(C)c1cc(NC(=O)Nc2cccc(Oc3ncnc4cc(OC)c(OC)cc34)c2)on1 [Ex 128, 1-(3-(6,7-dimethoxyquinazolin-4-yloxy)phenyl)-3-(3-(1-methoxy-2-methylpropan-2-yl)isoxazol-5-yl)urea] | C* (0.20 < C ≦ 0.40) | > 1000 nM | < 250 nM | > 1000 nM |  | 
COc1cc2ncnc(Oc3cccc(NC(=O)Nc4cc(C(F)(F)F)ccn4)c3)c2cc1OC [Ex 141, 1-(3-(6,7-dimethoxyquinazolin-4-yloxy)phenyl)-3-(4-(trifluoromethyl)pyridin-2-yl)urea] |  | < 250 nM | < 250 nM | < 250 nM |  | C (0.20 < C ≦ 0.40)
COc1cc2ncnc(Sc3cccc(NC(=O)Nc4cc(C(C)C)on4)c3)c2cc1OC [Ex 134, 1-(3-(6,7-dimethoxyquinazolin-4-ylthio)phenyl)-3-(5-isopropylisoxazol-3-yl)urea] | C* (0.20 < C ≦ 0.40) | < 250 nM | < 250 nM | < 250 nM |  | 
COc1cc2ncnc(Oc3cccc(NC(=O)Nc4cc(C(F)(F)F)nn4C)c3)c2cc1OC [Ex 164, 1-[3-(6,7-dimethoxyquinazolin-4-yloxy)phenyl]-3-[1-methyl-3-(trifluoromethyl)-1H-pyrazol-5-yl]urea] | C* (0.20 < C ≦ 0.40) | < 250 nM | < 250 nM | < 250 nM |  | 
COc1cc2ncnc(Oc3cccc(NC(=O)Nc4cc(C(C)(CF)CF)nn4-c4ccccc4)c3)c2cc1OC [Ex 167, 1-[3-(1,3-difluoro-2-methylpropan-2-yl)-1-phenyl-1H-pyrazol-5-yl]-3-[3-(6,7-dimethoxyquinazolin-4-yloxy)phenyl]urea] | D* (D > 0.40) | > 1000 nM | > 1000 nM | > 1000 nM |  | 
COc1cc2ncnc(Oc3cccc(NC(=O)Nc4cc(C(C)C)no4)c3)c2cc1OC [Ex 122, 1-(3-(6,7-dimethoxyquinazolin-4-yloxy)phenyl)-3-(3-isopropylisoxazol-5-yl)urea] |  | < 250 nM | < 250 nM | < 250 nM |  | C (0.20 < C ≦ 0.40)
COc1cc2ncnc(Sc3cccc(NC(=O)Nc4cc(C(C)(C)C)on4)c3)c2cc1OCCCS(C)(=O)=O [Ex 64, 1-(5-tert-butylisoxazol-3-yl)-3-(3-(7-methoxy-6-(3-(methylsulfonyl)propoxy)quinazolin-4-ylthio)phenyl)urea] |  | < 250 nM | < 250 nM | < 250 nM |  | C (0.20 < C ≦ 0.40)
COc1cc2c(Oc3cccc(NC(=O)Nc4cc(C(C)(C)C)on4)c3)ncnc2cc1OC[C@H](O)CN1CCN(C)CC1 [Ex 100, (R)-1-(5-tert-butylisoxazol-3-yl)-3-(3-(7-(2-hydroxy-3-(4-methylpiperazin-1-yl)propoxy)-6-methoxyquinazolin-4-yloxy)phenyl)urea] |  | < 250 nM | < 250 nM | < 250 nM |  | D (D > 0.40)
COc1ccc(NC(=O)Nc2cccc(Oc3ncnc4cc(OC)c(OC)cc34)c2)cc1Cl [Ex 180, 1-(3-chloro-4-methoxyphenyl)-3-(3-(6,7-dimethoxyquinazolin-4-yloxy)phenyl)urea] | B* (0.10 < B ≦ 0.20) | < 250 nM | < 250 nM | < 250 nM |  | 
COc1cc2ncnc(Sc3cccc(NC(=O)Nc4cc(C(F)(F)F)nn4C)c3)c2cc1OC [Ex 193, 1-[3-(6,7-dimethoxyquinazolin-4-ylthio)phenyl]-3-[1-methyl-3-(trifluoromethyl)-1H-pyrazol-5-yl]urea] | D* (D > 0.40) | < 250 nM | < 250 nM | < 250 nM |  | 
COc1cc2ncnc(Oc3cccc(NC(=O)Nc4cc(C(C)(C)F)on4)c3)c2cc1OC [Ex 136, 1-(3-(6,7-dimethoxyquinazolin-4-yloxy)phenyl)-3-(5-(2-fluoropropan-2-yl)isoxazol-3-yl)urea] | C* (0.20 < C ≦ 0.40) | < 250 nM | < 250 nM | < 250 nM |  | 
COc1cc2c(Oc3cccc(NC(=O)Nc4cc(C(C)(C)C)on4)c3)ncnc2cc1OC1CCN(CC(F)F)CC1 [Ex 105, 1-(5-tert-butylisoxazol-3-yl)-3-(3-{7-[1-(2,2-difluoroethyl)piperidin-4-yloxy]-6-methoxyquinazolin-4-yloxy}phenyl)urea] | C* (0.20 < C ≦ 0.40) | > 1000 nM | > 1000 nM | > 1000 nM |  | 
COc1cc2ncnc(Oc3cccc(NC(=O)Nc4cc(C(F)(F)F)n(C)n4)c3)c2cc1OC [Ex 165, 1-[3-(6,7-dimethoxyquinazolin-4-yloxy)phenyl]-3-[1-methyl-5-(trifluoromethyl)-1H-pyrazol-3-yl]urea] | C* (0.20 < C ≦ 0.40) | < 250 nM | < 250 nM | < 250 nM |  | 
COc1cc2ncnc(Oc3cccc(NC(=O)Nc4cc(C5CC5)no4)c3)c2cc1OC [Ex 124, 1-(3-cyclopropylisoxazol-5-yl)-3-(3-(6,7-dimethoxyquinazolin-4-yloxy)phenyl)urea] |  | < 250 nM | < 250 nM | < 250 nM |  | C (0.20 < C ≦ 0.40)
COc1cc2c(Oc3cccc(NC(=O)Nc4cc(C(C)(C)C)on4)c3)ncnc2cc1O[C@H]1CCN(CC(F)(F)F)C1 [Ex 104, (S)-1-(5-tert-butylisoxazol-3-yl)-3-(3-{6-methoxy-7-[1-(2,2,2-trifluoroethyl)pyrrolidin-3-yloxy]quinazolin-4-yloxy}phenyl)urea] | B* (0.10 < B ≦ 0.20) | > 1000 nM | > 1000 nM | > 1000 nM |  | 
